Assay results as given in ChEMBL document CHEMBL6120974, “Hydrazide-Based Class I Selective HDAC Inhibitors Completely Reverse Chemoresistance Synergistically in Platinum-Resistant Solid Cancer Cells” (J Med Chem, 2024).
The source made the active and inactive calls. The calls are words filed in the database; no cut-off is given here.

Experiments:
A2780cisR [1] = assay: Effect on survivin expression in human cisplatin resistant human A2780 cisR cells at 2 uM incubated for 48 hrs by Immunoblotting analysis; assay type: functional, cell-based
A2780 [2] = assay: cells; details: Homo sapiens, A2780, 72 h
Cal27CisR [3] = assay: Downregulation of survivin expression in cisplatin resistant human Cal27CisR cells at 0.316 uM in presence of cisplatin at 16.5 uM preincubated with compound for 48 hrs prior to addition of cisplatin and measured after 24 hrs by Immunoblotting analysis; assay type: functional, cell-based; details: time 72.0 hrs
CAL-27 [4] = assay: Induction of apoptosis in human CAL-27 cells assessed as increase in Bcl-2 protein level at 0.316 uM incubated for 48 hrs by Immunoblotting analysis; assay type: functional, cell-based
cells [5] = details: Homo sapiens, CAL-27
A2780 [6] = assay: Induction of apoptosis in human A2780 cells assessed as decrease in Bcl-2 protein level at 0.75 uM in presence of cisplatin at 3.5 uM preincubated with compound for 48 hrs prior to addition of cisplatin and measured after 24 hrs by Immunoblotting analysis; assay type: functional, cell-based; details: time 72.0 hrs
A2780cisR [7] = assay: Induction of apoptosis in cisplatin resistant human A2780 cisR cells assessed as increase in apoptotic nuclei at sub-G1 phase at 2 uM incubated for 48 hrs by flow cytometric analysis; assay type: functional, cell-based
Cal27CisR [8] = assay: Induction of DNA damage in cisplatin resistant human Cal27CisR cells assessed as increase in gammaH2AX formation at 0.316 uM in presence of cisplatin at 16.5 uM pretreated with compound for 48 hrs prior to addition of cisplatin and measured after 24 hrs by Hoechst 33342 staining based Immunofluorescence analysis; assay type: functional, cell-based; details: time 72.0 hrs
A2780cisR [9] = assay: Effect on survivin expression in human cisplatin resistant human A2780 cisR cells at 2 uM in presence of cisplatin at 16 uM preincubated with compound for 48 hrs prior to addition of cisplatin and measured after 24 hrs by Immunoblotting analysis; assay type: functional, cell-based; details: time 72.0 hrs
A2780 [10] = assay: Induction of apoptosis in human A2780 cells assessed as decrease in Bcl-2 protein level at 0.75 uM incubated for 48 hrs by Immunoblotting analysis; assay type: functional, cell-based
A2780cisR [11] = assay: Downregulation of survivin expression in cisplatin resistant human A2780 cisR cells at 2 uM incubated for 48 hrs by Immunoblotting analysis; assay type: functional, cell-based
A2780 [12] = assay: Induction of apoptosis in human A2780 cells assessed as caspase-3/7 activation at 2 uM incubated for 48 hrs by capase3/7 green dye based analysis; assay type: functional, cell-based
[13] = biological target: T1, Protein deacetylase HDAC6 (Homo sapiens, UniProt Q9UBN7); assay: Inhibition of N-terminal GST-tagged full length recombinant human HDAC6 (1 to 1215 end residues) expressed in sf9 cells using ZMAL (Z-Lys(Ac)-AMC as fluorogenic substrate preincubated with compound for 60 mins followed by substrate addition and measured after 90 mins by fluorescence based microplate reader analysis
T1 sequence (Q9UBN7 whole entry): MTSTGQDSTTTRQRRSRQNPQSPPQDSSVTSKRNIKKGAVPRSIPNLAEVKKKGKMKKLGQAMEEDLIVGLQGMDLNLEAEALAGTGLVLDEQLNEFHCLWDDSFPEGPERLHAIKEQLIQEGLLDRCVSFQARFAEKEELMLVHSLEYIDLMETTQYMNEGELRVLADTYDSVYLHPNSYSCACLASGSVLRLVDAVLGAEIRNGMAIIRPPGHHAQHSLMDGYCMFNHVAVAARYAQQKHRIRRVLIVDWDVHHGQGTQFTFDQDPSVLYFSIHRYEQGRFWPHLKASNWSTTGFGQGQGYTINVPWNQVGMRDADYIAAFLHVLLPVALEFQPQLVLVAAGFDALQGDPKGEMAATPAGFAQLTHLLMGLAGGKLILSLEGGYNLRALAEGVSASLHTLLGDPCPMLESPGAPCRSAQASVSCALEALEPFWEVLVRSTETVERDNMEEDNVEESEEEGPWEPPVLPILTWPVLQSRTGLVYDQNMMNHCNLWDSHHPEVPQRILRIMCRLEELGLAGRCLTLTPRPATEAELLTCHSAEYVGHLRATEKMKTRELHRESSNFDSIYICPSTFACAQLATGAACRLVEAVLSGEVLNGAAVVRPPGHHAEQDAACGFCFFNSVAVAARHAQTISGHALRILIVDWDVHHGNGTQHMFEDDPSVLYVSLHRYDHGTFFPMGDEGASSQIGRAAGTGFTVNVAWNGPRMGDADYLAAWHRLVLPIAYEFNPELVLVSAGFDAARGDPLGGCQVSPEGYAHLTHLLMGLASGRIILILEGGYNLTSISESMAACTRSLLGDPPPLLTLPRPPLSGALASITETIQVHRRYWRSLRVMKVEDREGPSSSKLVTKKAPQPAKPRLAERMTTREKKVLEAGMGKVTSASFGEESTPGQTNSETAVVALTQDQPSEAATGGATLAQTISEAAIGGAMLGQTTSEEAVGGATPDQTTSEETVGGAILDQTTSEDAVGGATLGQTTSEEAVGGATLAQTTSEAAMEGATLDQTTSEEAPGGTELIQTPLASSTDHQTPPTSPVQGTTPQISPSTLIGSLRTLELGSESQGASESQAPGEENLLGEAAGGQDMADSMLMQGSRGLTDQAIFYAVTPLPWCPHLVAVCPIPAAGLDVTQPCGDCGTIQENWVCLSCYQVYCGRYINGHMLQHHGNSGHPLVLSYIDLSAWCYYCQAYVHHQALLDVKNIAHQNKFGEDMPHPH

A2780cisR [14] = assay: cells; details: Homo sapiens, 72 h
A2780cisR [15] = assay: Downregulation of BAX expression in cisplatin resistant human A2780 cisR cells at 2 uM incubated for 48 hrs by Immunoblotting analysis; assay type: functional, cell-based
A2780cisR [16] = assay: Induction of apoptosis in cisplatin resistant human A2780 cisR cells assessed as increase in caspase 3/7 activation at 2 uM in presence of cisplatin preincubated with compound for 48 hrs co-treated with cisplatin and measured after 24 hrs by capase3/7 green dye based analysis; assay type: functional, cell-based; details: time 72.0 hrs
cells [17] = details: Homo sapiens, A2780
A2780cisR [18] = assay: Induction of cell cycle arrest in cisplatin resistant human A2780 cells assessed as increase in p21 expression at 2 uM incubated for 48 hrs by Western blotting analysis; assay type: functional, cell-based
CAL-27 [19] = assay: cells; details: Homo sapiens, CAL-27, 72 h
A2780 [20] = assay: Induction of apoptosis in human A2780 cells assessed as increase in apoptotic nuclei at sub-G1 phase at 2 uM incubated for 48 hrs by flow cytometric analysis; assay type: functional, cell-based
A2780cisR [21] = assay: Induction of apoptosis in cisplatin resistant human A2780 cisR cells assessed as decrease in Bcl-2 protein level at 2 uM incubated for 48 hrs by Immunoblotting analysis; assay type: functional, cell-based
Cal27CisR [22] = assay: Induction of apoptosis in human Cal27CisR cells assessed as increase in BIM expression at 0.316 uM incubated for 48 hrs by Immunoblotting analysis; assay type: functional, cell-based
Cal27CisR [23] = assay: Induction of apoptosis in cisplatin resistant human Cal27CisR cells assessed as increase in caspase 3/7 activation at 0.316 uM in presence of cisplatin preincubated with compound for 48 hrs co-treated with cisplatin and measured after 24 hrs by capase3/7 green dye based analysis; assay type: functional, cell-based; details: time 72.0 hrs

Row | IC50 (A2780 [2]) | IC50 (cells [5]) | IC50 [13] | IC50 (A2780cisR [14]) | IC50 (cells [17]) | IC50 (CAL-27 [19]) | SMILES | Activity (A2780cisR [1]) | Activity (Cal27CisR [3]) | Activity (CAL-27 [4]) | Activity (A2780 [6]) | Activity (A2780cisR [7]) | Activity (Cal27CisR [8]) | Activity (A2780cisR [9]) | Activity (A2780 [10]) | Activity (A2780cisR [11]) | Activity (A2780 [12]) | Activity (A2780cisR [15]) | Activity (A2780cisR [16]) | Activity (A2780cisR [18]) | Activity (A2780 [20]) | also measured
1 | 894 nM | 166 nM | > 3330 nM | 2690 nM | 263 nM | 688 nM | CCCCNNC(=O)c1ccc(CN(CC(=O)NCc2ccccc2)C(=O)c2ccc(N(C)C)cc2)cc1 | inactive | Active | Not active; Slight Increase Observed | Active | Active | Active | inactive | Active | Active | Active; Remarkable Activation Observed | Active | Active | Active | Active | Activity (A2780cisR [21]): Active; Activity (Cal27CisR [22]): Active; Activity (Cal27CisR [23]): Active
2 | 1130 nM | 151 nM | > 10000 nM | 2460 nM | 235 nM | 660 nM | CCCNNC(=O)c1ccc(CN(CC(=O)NCc2ccccc2)C(=O)c2ccc(N(C)C)cc2)cc1 | inactive | Active | Not active; Slight Increase Observed | Active | Active | Active | inactive | Active | Active | Active; Remarkable Activation Observed | Active | Active | Active | Active | Activity (A2780cisR [21]): Active; Activity (Cal27CisR [22]): Active; Activity (Cal27CisR [23]): Active
